Source: US7582786B2, “Synthetic catalytic free radical scavengers useful as antioxidants for prevention and therapy of disease” (Eukarion Inc., priority 1996, dated 2009)

How the values were obtained:
[1] = SOD activity, xanthine/xanthine oxidase with cytochrome C as acceptor (Example 2); format: biochemical; details: for SOD: relative to C7 (C7 = 100)
In short: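 Superoxide was generated by 120 µM xanthine and 0.2 U/ml xanthine oxidase in 50 mM sodium phosphate pH 7.8 at 27 °C, with salen manganese compounds at ≥4 concentrations in duplicate.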

[2] = tested on: brain homogenates; experiment: Iron-induced lipid peroxidation in brain homogenates (MDA); format: biochemical, rat
Protocol: Lipid peroxidation was induced by incubating a mixture consisting of 0.25 ml homogenate, 0.25 ml ASCF with test compounds, and 10 μM FeCl2 for 1 hr at 35° C. under an atmosphere equilibrated with O2:CO2(95:5). Following the incubation, 0.1 ml of the sample was extracted with trichloroacetic acid and analyzed for thiobarbituric acid reactive material as described previously, using authentic malonyldialdehyde (MDA) as a standard.

[3] = tested on: Human dermal fibroblasts (HF cells); experiment: Cell protection assay, tert-butylhydroperoxide (t-BHP) toxicity, XTT; format: cell-based
Protocol: Human dermal fibroblasts (HF cells) were obtained from the American type tissue Culture Collection at passage 1 and cultured and propagated in a medium (HF medium) consisting of Dulbecco's Modified Eagle's Medium with 4.5 g/l D-glucose, 10% calf serum 4 mM glutamine, 50 units/ml penicillin, and 50 μg/ml streptomycin in a 37° C. humidified incubator equilibrated with 5% CO2. Cells were used at passages 5 or 6 for experiments. For cell protection assays, HF cells were seeded at a density of about 15,000 cells per cm2 onto 96-well culture plates and allowed to grow to confluence. To assess protection tert-butylhydroperoxide (t-BHP) toxicity, confluent cell layers were first treated with the indicated concentrations of test compounds dissolved in HF medium for 18 hr. The medium was then replaced with fresh medium containing test compounds and 0.5 mM tert-butylhydroperoxide (t-BHP) and cells were incubated for another 18 hr. The medium was then removed and replaced with fresh HF medium (100 μl per well) without test compounds or t-BHP. Fifty μl of XTT reagent (Boeringer Mannheim, Inc.), prepared as described by the manufacturer, was then added to each well and the plates returned to the incubator. After 2 hr., the absorbance at 490 nm was measured in a BioRad (Richmond, Calif.) Model 3550 plate-reader, using a reference wavelength of 655 nm. Control cells that had not been exposed to test compounds or toxic agents were included among the samples treated with XTT reagent. Absorbance measurements for blank wells, containing HF medium and XTT reagent but no cells, were also determined. To analyze protection from glucose/glucose oxidase toxicity, confluent cell layers were incubated with HF medium containing glucose oxidase (0.019 units/ml) along with test compounds, as indicated, for 18 hr in the tissue culture incubator. Fresh HF medium was then added and cell viability assessed using the XTT reagent as described above. For both these models, concentrations of toxic agents were selected that were reproducibly completely lethal. Cytotoxicity assessments were routinely confirmed by visual inspection of the cell layers prior to addition of the XTT reagent.

[4] = Peroxidase activity with t-BHP as substrate, ABTS oxidation; format: biochemical
Protocol: Peroxidase activity was assayed by monitoring the hydrogen peroxide-dependent oxidation of 2,2′-azino-bis(3-ethylbenzthiazoline-6) sulfonic acid (ABTS) spectrophotometrically. Standard assay mixtures consisted of 50 mM sodium phosphate, pH 8.1, 0.9% sodium chloride, 0.5 mM ABTS, and H2O2 and salen manganese complex as indicated. Where indicated, 50 mM sodium phosphate buffers of pH 6.0 or pH 7.1 were substituted. Assays were conducted at 27±0.2° C. ABTS oxidation was monitored at 740 or 500 nm to eliminate interference by the salen manganese complexes, many of which absorb in the vicinity of the λmax of oxidized ABTS, and to avoid absorbance values that exceeded the linear range of the spectrophotometer. The amount of oxidized ABTS was estimated using an Δε740 of 20,300 M^−1cm^−1 or an Δε500 of 3400 M^−1cm^−1 calculated based upon the published molar extinction coefficient oat 405 nm (36,800).
(In comparison, horseradish peroxidase utilized t-BHP with an ABTS oxidation rate that was about 5.4% of the rate with H2O2).

[5] = tested on: Human dermal fibroblasts (HF cells); experiment: Cell protection assay, glucose/glucose oxidase toxicity, XTT; format: cell-based; details: for protection against glucose and glucose oxidase: glucose oxidase 0.019 units/ml
In short: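 Confluent HF fibroblasts (passage 5–6) were incubated 18 h at 37 °C with test compounds plus glucose oxidase (0.019 units/ml) in DMEM containing 4.5 g/l glucose, a reproducibly lethal level. Viability was read by XTT after 2 h as absorbance at 490 nm (reference 655 nm), relative to untreated and cell-free blanks.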

Compound: [Cl][Mn]1[O]c2ccccc2C=NCCN=Cc2ccccc2[O]1 [Compound C7]
- SOD activity (in words) [1]: catalytic SOD activity
- SOD [1]: 100
- MDA levels, percent of control ([2]; 1 μM): 110%
- MDA levels, percent of control ([2]; 5 μM): 84%
- MDA levels, percent of control ([2]; 10 μM): 22%
- MDA levels, percent of control ([2]; 25 μM): 4%
- Cell viability, absorbance at 490 nm uncorrected for blank ([3]; 2.5 μM, t-BHP 0.5 mM): 0.28 ± 0.01
- Cell viability, absorbance at 490 nm uncorrected for blank ([3]; 5 μM, t-BHP 0.5 mM): 0.68 ± 0.31
- Cell viability, absorbance at 490 nm uncorrected for blank ([3]; 10 μM, t-BHP 0.5 mM): 1.45 ± 0.05
- Cell viability, absorbance at 490 nm uncorrected for blank ([3]; 20 μM, t-BHP 0.5 mM): 1.44 ± 0.05
- Cell viability, absorbance at 490 nm uncorrected for blank ([3]; 40 μM, t-BHP 0.5 mM): 1.42 ± 0.03
- synergistic toxicity with t-BHP ([3]; 80 μM): possible synergistic toxicity
- Cell viability, absorbance at 490 nm uncorrected for blank ([3]; 80 μM, t-BHP 0.5 mM): 0.77 ± 0.41
- ABTS oxidation rate with t-BHP, percent of rate with H2O2 ([4]; 1 mM t-BHP): about 0.5%

Compound: COc1cccc2c1[O][Mn]([O]C(C)=O)[O]c1c(cccc1OC)C=NCCN=C2 [Compound C32]
- SOD [1]: 96
- MDA levels, percent of control ([2]; 1 μM): 104%
- MDA levels, percent of control ([2]; 5 μM): 35%
- MDA levels, percent of control ([2]; 10 μM): 13%
- MDA levels, percent of control ([2]; 25 μM): 8%
- Cell viability, absorbance at 490 nm uncorrected for blank ([3]; 2.5 μM, t-BHP 0.5 mM): 0.29 ± 0.01
- Cell viability, absorbance at 490 nm uncorrected for blank ([3]; 5 μM, t-BHP 0.5 mM): 0.28 ± 0.01
- Cell viability, absorbance at 490 nm uncorrected for blank ([3]; 10 μM, t-BHP 0.5 mM): 1.35 ± 0.05
- Cell viability, absorbance at 490 nm uncorrected for blank ([3]; 20 μM, t-BHP 0.5 mM): 1.43 ± 0.05
- Cell viability, absorbance at 490 nm uncorrected for blank ([3]; 40 μM, t-BHP 0.5 mM): 1.48 ± 0.06
- Cell viability, absorbance at 490 nm uncorrected for blank ([3]; 80 μM, t-BHP 0.5 mM): 1.40 ± 0.07
- protection against glucose and glucose oxidase (in words) [5]: more protective than C43
- protection against glucose and glucose oxidase ([5]; 40 μM): significant protection
- protection against glucose and glucose oxidase ([5]; 80 μM): complete protection
- peroxidase rate with t-BHP relative to C7 [4]: ~3 fold

Compound: COc1cc(OC)c2c(c1)[O][Mn]([O]C(C)=O)[O]c1cc(OC)cc(OC)c1C=NCCN=C2 [Compound C35]
- SOD [1]: 27
- inhibition of lipid peroxidation (in words) [2]: very potent
- MDA levels, percent of control ([2]; 1 μM): 82%
- MDA levels, percent of control ([2]; 5 μM): 5%
- MDA levels, percent of control ([2]; 10 μM): 4%
- MDA levels, percent of control ([2]; 25 μM): 3%
- Cell viability, absorbance at 490 nm uncorrected for blank ([3]; 2.5 μM, t-BHP 0.5 mM): 0.27 ± 0.01
- Cell viability, absorbance at 490 nm uncorrected for blank ([3]; 5 μM, t-BHP 0.5 mM): 0.27 ± 0.01
- Cell viability, absorbance at 490 nm uncorrected for blank ([3]; 10 μM, t-BHP 0.5 mM): 0.29 ± 0.03
- Cell viability, absorbance at 490 nm uncorrected for blank ([3]; 20 μM, t-BHP 0.5 mM): 1.40 ± 0.05
- Cell viability, absorbance at 490 nm uncorrected for blank ([3]; 40 μM, t-BHP 0.5 mM): 1.52 ± 0.07
- toxicity of compound alone ([3]; 80 μM, without t-BHP): equivalent toxicity with or without t-BHP
- Cell viability, absorbance at 490 nm uncorrected for blank ([3]; 80 μM, t-BHP 0.5 mM): 0.57 ± 0.01
- concentration at which protection was observed ([3]; t-BHP 0.5 mM): ≥ 20 µM
- protection against glucose and glucose oxidase (in words) [5]: not cytoprotective
- peroxidase activity toward t-BHP, percent of C7 [4]: less than 2%

Compound: COc1cccc2c1[O][Mn]([Cl])[O]c1c(cccc1OC)C=NCCN=C2 [Compound C40]
- SOD [1]: 96
- protection against glucose and glucose oxidase ([5]; 40 μM): significant protection
- protection against glucose and glucose oxidase ([5]; 80 μM): complete protection
